Measured values taken from US7348300B2, “Acetylenic diol ethylene oxide/propylene oxide adducts and processes for their manufacture” (Air Products and Chemicals, Inc., priority 1999, dated 2008).
Where two headings read alike, the source gives them in different places.

Legend:
[1] = Ross-Miles foam test based upon ASTM D 1173-53; type: physicochemical; details: 0.1 wt % solution
Experimental: In this test, a 0.1 wt % solution of the surfactant is added from an elevated foam pipette to a foam receiver containing the same solution. The foam height is measured at the completion of the addition (“Initial Foam Height”) and the time required for the foam to dissipate is recorded (“Time to 0 Foam”). This test provides a comparison between the foaming characteristics of various surfactant solutions. In general, in coatings, inks, and agricultural formulations, foam is undesirable because is complicates handling and can lead to coating and print defects, and to inefficient application of agricultural materials.

[2] = Dynamic surface tension of aqueous solutions, maximum bubble pressure method
Excerpt: In the following Examples dynamic surface tension data were obtained for aqueous solutions of various compounds using the maximum bubble pressure method at bubble rates from 0.1 bubbles/second (b/s) to 20 b/s. […] In practical terms, high bubble rates correspond to high printing speeds in lithographic printing, high spray or roller velocities in coating applications, and rapid application rates for agricultural products.
This value is a measure of the efficiency of a surfactant.
The critical aggregation concentrations (solubility limit or critical micelle concentration) were determined by intersection of the linear portion of a surface tension/ In concentration curve with the limiting surface tension as is described in many textbooks. […]
Process solutions containing 0.1 weight percent of a surfactant derived from 2,5,8,11-tetramethyl-6-dodecyne-5,8-diol or containing a fluorosurfactant, potassium perfluorooctane carboxylate provided by 3M of […]. were prepared in order to compare the equilibrium surface tension (EST) and dynamic surface tension (DST). The EST for both solutions was measured using the Wilhemy plate method on a […] manufactured by Kruss, Inc. of Charlotte, N.C. The DST of each process solution was measured via the maximum bubble pressure method.

[3] = Equilibrium surface tension, Wilhemy plate method; type: physicochemical; details: 0.1 wt %
Experimental: Process solutions containing 0.1 weight percent of a surfactant derived from 2,5,8,11-tetramethyl-6-dodecyne-5,8-diol or containing a fluorosurfactant, potassium perfluorooctane carboxylate provided by 3M of St. Louis, Mo. were prepared in order to compare the equilibrium surface tension (EST) and dynamic surface tension (DST). The EST for both solutions was measured using the Wilhemy plate method on a Kruss BP3 bubble pressure tensiometer manufactured by Kruss, Inc. of Charlotte, N.C.

RM Foam initial (Initial Foam Height) [1] [cm]	RM Foam t to 0 (Time to 0 Foam) [1] [s]	Sol Limit / critical aggregation concentration (CAG) [2] [wt %]	RM Foam, foam height after 5 minutes [1] [cm]	Sol Limit / critical aggregation concentration (CAG) ([2]; solubility limit or critical micelle concentration in water)	Compound	EST [3] [dyne/cm]
1.0	10	0.21			3.5 mole ethoxylate of 2,4,7,9-tetramethyl-5-decyne-4,7-diol capped with 2 moles of propylene oxide [Example 3]	
2.1			1.3	(0.78) wt %	10 mole EO/2 mole PO block derivative of 2,4,7,9-tetramethyl-5-decyne-4,7-diol [Example 5]	
					O=C([O-])C(F)(F)C(F)(F)C(F)(F)C(F)(F)C(F)(F)C(F)(F)C(F)(F)C(F)(F)F.[K+] [Fluorosurfactant, potassium perfluorooctane carboxylate, reference compound]	21.2
